4 compounds from US12161648B2, “Covalent targeting of E3 ligases” (The Regents of the University of California, priority 2018, dated 2024) can be followed below.

For one experiment, the system named is 231MFP tumor xenograft. The experiment in a line: 231MFP tumor xenograft growth in SCID mice. Format: in vivo. To be noted: 50 mg/kg ip, once per day, from day 17. The procedure:
Tumor xenograft studies. Human tumor xenografts were established by transplanting cancer cells ectopically into the flank of female C.B17 severe combined immunodeficiency (SCID) mice (Taconic Farms) as previously described^66,69 In brief, cells were washed with PBS, trypsinized, and harvested in serum-containing medium. Harvested cells were washed in serum-free media and resuspended in serum-free media at a concentration of 2.0×10^4 cells/μl, and 100 μl was injected subcutaneously into the flank of each mouse. Tumors were measured with calipers. Animal experiments were conducted in accordance with the guidelines of the Institutional Animal Care and Use Committees of the University of California, Berkeley.

The subject of experiment [1] is RNF114. The experiment is described as follows: RNF114 ubiquitination assay. It is filed as biochemical, human. To be noted: 50 μM, wild-type or C8A mutant RNF114.
Method: RNF114 ubiquitination assay. Recombinant Myc-Flag-RNF114 proteins were either purified from HEK292T cells as described above or purchased from Origene (Origene Technologies Inc., TP309752). For in vitro auto-ubiquitination assay, 0.2 μg of RNF114 in 25 μL of TBS was pre-incubated with DMSO vehicle or the covalently-acting compound for 30 min at room temperature. Subsequently, 0.1 μg of UBE1 (Boston Biochem. Inc, E-305), 0.1 μg UBE2D1 (Boston Bichem. Inc, e2-615), 5 μg of Flag-ubiquitin (Boston Bichem. Inc, u-120) in a total volume of 25 μL Tris buffer containing 2 mM ATP were added to achieve a final volume of 50 μL. The mixture was incubated at 37° C. with agitation for 1.5 h. 20 μL of Laemmli's buffer was added to quench the reaction and proteins were analyzed by western blot assay.
A further experiment concerns 231MFP cells. The experiment in a line: Survival and proliferation assay (Hoechst stain), 231MFP. Format: cell-based, human. To be noted: 48 h.
Experiment [2] deals with 231MFP breast cancer cell proteomes. The experiment in a line: isoTOP-ABPP proteome-wide selectivity in 231MFP proteomes in vitro. It is filed as binding, human. To be noted: 50 μM.
In experiment [3] the target is T1, RNF114 (Homo sapiens, UniProt Q9Y508).
T1 construct: Myc; FLAG; purchased Origene
T1 sequence (Q9Y508 whole entry): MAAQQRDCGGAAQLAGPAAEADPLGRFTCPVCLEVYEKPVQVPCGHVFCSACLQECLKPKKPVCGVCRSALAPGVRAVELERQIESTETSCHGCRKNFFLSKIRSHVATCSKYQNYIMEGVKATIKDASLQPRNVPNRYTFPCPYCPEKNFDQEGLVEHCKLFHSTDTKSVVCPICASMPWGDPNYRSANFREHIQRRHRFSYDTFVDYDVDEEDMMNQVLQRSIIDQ
The experiment is described as follows: Gel-based ABPP, competition against JNS27 labeling of pure RNF114. It is filed as binding. To be noted: covalent ligands 50 μM. As for the experimental part:
(§1) Gel-Based ABPP. Gel-based ABPP methods were performed as previously described^34,62,63,67. Recombinant pure human proteins were purchased from Origene. […] CuAAC was performed to append rhodamine-azide (1 μM final concentration) onto alkyne probe-labeled proteins. Samples were then diluted with 20 μL of 4× reducing Laemmli SDS sample loading buffer (Alfa Aesar) and heated at 90° C. for 5 min. The samples were separated on precast 4-20% TGX gels (Bio-Rad Laboratories, Inc.). Prior to scanning by ChemiDoc MP (Bio-Rad Laboratories, Inc), gels were fixed in a solution of 10% acetic acid, 30% ethanol for 2 hrs. Inhibition of target labeling was assessed by densitometry using ImageJ.
as §1, with “described^14.” for “described^34,62,63,67.”

The target in experiment [4] is T2, RNF4 (Homo sapiens, UniProt P78317).
T2 construct: purchased Boston Biochem K-220
T2 sequence (P78317 1-190): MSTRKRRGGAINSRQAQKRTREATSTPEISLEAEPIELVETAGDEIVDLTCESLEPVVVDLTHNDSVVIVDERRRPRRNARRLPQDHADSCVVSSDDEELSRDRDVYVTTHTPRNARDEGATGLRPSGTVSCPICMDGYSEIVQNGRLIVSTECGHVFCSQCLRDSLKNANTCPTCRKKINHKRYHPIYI
The experiment is described as follows: RNF4 in vitro auto-ubiquitination assay. It is filed as biochemical. To be noted: 100 μM pre-incubation. The procedure: RNF4 ubiquitination assay. […] Subsequently, UBE1 (50 nM, Boston Biochem, E-305), UBE2D1 (400 nM Boston Bichem, E2-615), Flag-ubiquitin (4000 nM, Boston Biochem, U-120) and ATP (200 μM) were added in ubiquitination assay buffer bring the total volume to 30 μL. The mixture was incubated at RT for 30 min before quenching with 10 μL of 4× Laemmli's buffer. Ubiquitination activity was measured by separation on an SDS-PAGE gel and western blotting as previously described.

The target in experiment [5] is T2, RNF4. The experiment in a line: Gel-based ABPP, competition against IA-rhodamine labeling of pure RNF4. It is filed as binding. To be noted: for inhibition of IA-rhodamine labeling of RNF4: confirmation of screening hits; for hits from covalent ligand screen against IA-rhodamine labeling of RNF4: covalent ligands 50 μM, 30 min pre-incubation, IA-rhodamine 250 nM 1 h. The procedure: Gel-Based ABPP. Gel-based ABPP methods were performed as previously described^5,6,25,26. Pure recombinant human RNF4 was purchased from Boston Biochem (K-220). RNF4 (0.25 μg) was diluted into 50 μL of PBS and 1p L of either DMSO (vehicle) or covalently acting small molecule to achieve the desired concentration. After 30 minutes at room temperature, the samples were treated with 250 nM IA-Rhodamine (Setareh Biotech, 6222, prepared in anhydrous DMSO) for 1 h at room temperature. Samples were then diluted with 20 μL of 4× reducing Laemmli SDS sample loading buffer (Alfa Aesar) and heated at 90° C. for 5 min. The samples were separated on precast 4-20% Criterion TGX gels (Bio-Rad Laboratories, Inc.). Fluorescent imaging was performed on a ChemiDoc MP (Bio-Rad Laboratories, Inc) inhibition of target labeling was assessed by densitometry using ImageJ.

Experiment [6] addresses T2, RNF4. The experiment is described as follows: LC-MS/MS analysis of covalent adduct on RNF4. Format: binding. To be noted: 50 μM, 30 min, tryptic digests. The procedure:
LC-MS/MS analysis of RNF4. Purified RNF4 (10 μg) was diluted into 80 μL of PBS and treated for 30 min with DMSO or compound (50 μM). […] The samples were precipitated by additional of 20 μL of 100% (w/v) TCA and combined pairwise before cooling to −80 C for one hour.

The subject of experiment [7] is 231MFP breast cancer cell proteomes. The experiment is described as follows: Gel-based ABPP of general cysteine-reactivity in 231MFP lysates. It is filed as binding, human. To be noted: IA-rhodamine 250 nM. As for the experimental part:
FIG. 5. Additional hits against RNF4 and general assessment of proteome-wide selectivity of RNF4 hits by gel-based ABPP. Gel-based ABPP analysis of DKM 2-76 and TRH 1-74 against IA-rhodamine labeling of RNF4. Covalent ligands were pre-incubated with pure RNF4 protein for 30 min prior to IA-rhodamine labeling (250 nM) for 1 h. Proteins were subjected to SDS/PAGE and visualized by in-gel fluorescence. Gel-based ABPP screen of RNF4 hits YP 1-44 and TRH 1-23 against IA-rhodamine labeling in 231MFP breast cancer cell proteomes. YP 1-44 and TRH 1-23 were pre-incubated with proteome for 30 min prior to IA-rhodamine labeling (250 nM) for 1 h. Proteins were subjected to SDS/PAGE and visualized by in-gel fluorescence.

Experiment [8] has as its target T1, RNF114. The experiment is described as follows: Gel-based ABPP, nimbolide probe labeling of pure RNF114. Format: binding. To be noted: probe 10 μM, 1 h.

Molecules are shown by their SMILES.

Method for 231MFP cells: Survival and Proliferation Assays. Cell survival and proliferation assays were performed as previously described using Hoechst 33342 dye (Invitrogen) according to manufacturer's protocol and as previously described^62. 231MFP cells were seeded into 96-well plates (40,000 for survival and 20,000 for proliferation) in a volume of 150 μl and allowed to adhere overnight. Cells were treated with an additional 50 μL of media containing 1:250 dilution of 1000× compound stock in DMSO. After the appropriate incubation period, media was removed from each well and 100 μl of staining solution containing 10% formalin and Hoechst 33342 dye was added to each well and incubated for 15 min in the dark at room temperature. After incubation, staining solution was removed, and wells were washed with PBS before imaging.
Survival and Proliferation Assays. Cell survival and proliferation assays were performed as previously described using Hoechst 33342 dye (Invitrogen) according to manufacturer's protocol and as previously described^14. 231MFP cells were seeded into 96-well plates (40,000 for survival and 20,000 for proliferation) in a volume of 150 μl and allowed to adhere overnight. Cells were treated with an additional 50 μL of media containing 1:250 dilution of 1000× compound stock in DMSO. […]

Take `C=CC(=O)NCc1ccc(C(=O)Nc2sc(-c3ccccc3)c(C)c2C(=O)N2CCCCC2)cc1` [EN62]: the “231MFP tumor xenograft growth” value with 231MFP tumor xenograft is recorded as “attenuated”. Further, the RNF114 autoubiquitination activity entry in the experiment on RNF114 [1] is “inhibited”. Further, in the experiment with 231MFP cells, the “231MFP breast cancer cell survival” value is reported as “impaired”. The proteome-wide selectivity result in [2] is on record as “exhibited proteome-wide selectivity”. Also, the “hit from covalent ligand screen against RNF114” value on RNF114 [3] is “promising hit”.
For the compound `O=C(CCl)Nc1ccc(Oc2ccccc2)cc1` [TRH 1-23], the RNF4 autoubiquitination activity entry at RNF4 [4] is reported as “does not inhibit”. For the same compound, on RNF4 [5], the “potency to be useful as an RNF4 recruiter” value is given as “did not show sufficient potency”; the “inhibition of IA-rhodamine labeling of RNF4” value was “reproducible and dose-responsive inhibition”; the “hits from covalent ligand screen against IA-rhodamine labeling of RNF4” value was “potential hits”. The “site-of-modification within RNF4” value on RNF4 [6] is “covalently modified either, but not both, of the two zinc-coordinating cysteines CI32 and CI35”.
Consider `C=CC(=O)n1ccc2ccccc21` [YP 1-44, 1-(1H-indol-1-yl)prop-2-en-1-one], for which, at RNF4 [5], the “inhibition of IA-rhodamine labeling of RNF4” value was “reproducible and dose-responsive inhibition”; the “hits from covalent ligand screen against IA-rhodamine labeling of RNF4” value was “potential hits”. The “selectivity, general cysteine-reactivity” value in experiment [7] was “much less selective compared to TRH 1-23”.
For `C#CCNC(=O)c1ccc(-c2occc2[C@@H]2C[C@H]3O[C@@H]4[C@@H]5OC(=O)[C@]6(C)C=CC(=O)[C@](C)([C@@H](CC(=O)OC)[C@]4(C)C3=C2C)[C@@H]56)cc1` [nimbolide probe], the “probe labeling of pure RNF114” value on RNF114 [8] is “reacts with pure human RNF114”.
